pIC50: −log10 of the molar value. Calls of active or inactive are those of the source. The calls are words filed in the database; no cut-off is given here.
Experiments:
Gamma-secretase = test: Modulatory activity of gamma secretase in human SKNBE2 cells assessed as decrease in Abeta42 levels incubated for 6 hrs by sandwich ELISA; type: cell-based
[1] = target: Gamma-secretase (Homo sapiens) (UniProt Q96BI3+Q9NZ42+Q8WW43+P49768+Q92542+P49810); test: Inhibition of gamma-secretase in human H4 cells overexpressing human wild-type APP assessed as beta-CTF level incubated for 24 hrs by ELISA; type: cell-based
[2] = Drug concentration in ddY mouse plasma at 30 mg/kg, po measured after 3 hrs by LC-MS/MS analysis; type: ADME, organism-based
[3] = Drug concentration in ddY mouse brain at 30 mg/kg, po measured after 3 hrs by LC-MS/MS analysis; type: ADME, organism-based; conditions: read-out: Ct
[4] = […], ratio of drug concentration in brain to plasma at steady state in ddY mouse at 30 mg/kg, po by LC-MS/MS analysis; type: ADME, organism-based
[5] = Ratio of drug concentration in ddY mouse brain to IC50 for gamma secretase in human SKNBE2 cells assessed as decrease in Abeta42 levels incubated for 6 hrs by sandwich ELISA; type: ADME, cell-based
Mus musculus [6] = test: In vivo modulatory activity of gamma secretase in ddY mouse assessed as reduction in Abeta42 levels in brain at 30 mg/kg, po measured after 3 hrs by ELISA relative to control; type: functional
Mus musculus [7] = test: In vivo modulatory activity of gamma secretase in ddY mouse assessed as reduction in Abeta42 levels in plasma at 30 mg/kg, po measured after 3 hrs by ELISA relative to control; type: functional
CYP3A4 [8] = target: T1, CYP3A4 (Homo sapiens, UniProt P08684); test: Inhibition of CYP3A4 in human liver microsomes assessed as residual activity at 5 uM using midazolam as substrate measured after 20 mins by LC-MS/MS analysis relative to control; type: ADME; conditions: probe midazolam, read-out: Activity
CYP3A4 [9] = target: T1, CYP3A4; test: Inhibition of CYP3A4 in human liver microsomes assessed as residual activity at 5 uM using midazolam as substrate preincubated with enzyme for 30 mins followed by incubation with substrate for 20 mins by LC-MS/MS analysis relative to control; type: ADME; conditions: probe midazolam, read-out: Activity
in vitro = conditions: CD1, mouse, liver microsomes

T1 sequence (P08684 whole entry): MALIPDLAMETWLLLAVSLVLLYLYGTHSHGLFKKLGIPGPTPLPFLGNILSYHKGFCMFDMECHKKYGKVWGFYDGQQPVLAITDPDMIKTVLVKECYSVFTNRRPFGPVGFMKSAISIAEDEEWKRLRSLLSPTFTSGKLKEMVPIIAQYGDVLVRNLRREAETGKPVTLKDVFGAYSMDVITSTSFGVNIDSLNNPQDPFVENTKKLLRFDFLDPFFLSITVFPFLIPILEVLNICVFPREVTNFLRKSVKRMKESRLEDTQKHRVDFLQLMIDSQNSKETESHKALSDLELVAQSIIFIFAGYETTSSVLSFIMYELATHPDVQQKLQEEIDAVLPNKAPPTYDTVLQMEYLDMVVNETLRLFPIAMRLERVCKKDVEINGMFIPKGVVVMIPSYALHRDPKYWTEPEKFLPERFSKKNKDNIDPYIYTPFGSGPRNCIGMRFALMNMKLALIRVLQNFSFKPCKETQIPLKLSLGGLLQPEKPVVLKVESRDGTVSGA

CCNC(=O)c1ccc(-c2c(C)nc3c(OCc4ccc(-c5ccccc5)cc4)cccn23)cn1.Cl
pIC50 (Gamma-secretase): 7.04 | inhibition [1]: inactive | concentration at 3 h [2]: 10 µM | concentration at 3 h [3]: 4600 nM | Kp [4]: 0.45 | Ratio [5]: 51 nmol/g/uM | inhibition in vivo at 30 mg/kg (Mus musculus [6]): 36% | inhibition in vivo at 30 mg/kg (Mus musculus [7]): 66% | activity at 20 min, 5 µM (CYP3A4 [8]): 101% | activity at 20 min, 5 µM (CYP3A4 [9]): 83% | microsomal CLint at 0.75 h, 0.2 µM (in vitro): 84.7 µL/min/mg

CCNC(=O)c1ccc(-c2c(C)nc3c(OCc4ccccc4-c4ccccc4)cccn23)cn1
pIC50 (Gamma-secretase): 6.41 | microsomal CLint at 0.75 h, 0.2 µM (in vitro): > 1000 µL/min/mg

CCNC(=O)c1ccc(-c2c(C)nc3c(OCc4ccccc4F)cccn23)cn1.Cl
pIC50 (Gamma-secretase): 6.82 | concentration at 3 h [2]: 2.7 µM | concentration at 3 h [3]: 750 nM | Kp [4]: 0.27 | Ratio [5]: 5 nmol/g/uM | inhibition in vivo at 30 mg/kg (Mus musculus [6]): 6% | inhibition in vivo at 30 mg/kg (Mus musculus [7]): 16% | microsomal CLint at 0.75 h, 0.2 µM (in vitro): 228 µL/min/mg

CCNC(=O)c1ccc(-c2c(C)nc3c(OCc4ccc(C)cc4)cccn23)cn1
pIC50 (Gamma-secretase): 6.43 | microsomal CLint at 0.75 h, 0.2 µM (in vitro): 438 µL/min/mg

CCNC(=O)c1ccc(-c2c(C#N)nc3c(OCc4ccccc4)cccn23)cn1
microsomal CLint at 0.75 h, 0.2 µM (in vitro): 318 µL/min/mg

CCNC(=O)c1ccc(-c2c(C)nc3c(OCc4cccc(-c5ccccc5)c4)cccn23)cn1.Cl
pIC50 (Gamma-secretase): 7.21 | concentration at 3 h [2]: 6.6 µM | concentration at 3 h [3]: 770 nM | Kp [4]: 0.12 | Ratio [5]: 12 nmol/g/uM | inhibition in vivo at 30 mg/kg (Mus musculus [6]): 6% | microsomal CLint at 0.75 h, 0.2 µM (in vitro): 367 µL/min/mg

CCNC(=O)c1ccc(-c2c(C)nc3c(OCc4ccccc4)cccn23)cc1F
pIC50 (Gamma-secretase): < 4.30 | microsomal CLint at 0.75 h, 0.2 µM (in vitro): 500 µL/min/mg

CCNC(=O)c1ccc(-c2c(CO)nc3c(OCc4ccccc4)cccn23)cn1
microsomal CLint at 0.75 h, 0.2 µM (in vitro): 75.7 µL/min/mg

CCNC(=O)c1ccc(-c2c(C)nc3c(OCc4ccccc4)cccn23)cn1
pIC50 (Gamma-secretase): 6.24 | microsomal CLint at 0.75 h, 0.2 µM (in vitro): 324 µL/min/mg

CCNC(=O)c1ccc(-c2c(C)nc3c(OCCc4ccccc4)cccn23)cn1
pIC50 (Gamma-secretase): 5.96 | microsomal CLint at 0.75 h, 0.2 µM (in vitro): > 1000 µL/min/mg

CCNC(=O)c1ccc(-c2c(C)nc3c(OCc4cccc(F)c4)cccn23)cn1
pIC50 (Gamma-secretase): 6.62 | microsomal CLint at 0.75 h, 0.2 µM (in vitro): 295 µL/min/mg

CCN1Cc2cc(-c3c(C)nc4c(OCc5ccccc5)cccn34)ccc2C1=O.Cl
Kp [4]: 0.72 | Ratio [5]: 1.8 nmol/g/uM | inhibition in vivo at 30 mg/kg (Mus musculus [6]): 2%

CCNC(=O)c1ccc(-c2c(C)nc3c(OCc4ccc(C)cc4C)cccn23)cn1
microsomal CLint at 0.75 h, 0.2 µM (in vitro): 652 µL/min/mg

CCNC(=O)c1ccc(-c2c(C)nc3c(OCc4cccc(C(=O)N(C)C)c4)cccn23)cn1
pIC50 (Gamma-secretase): < 5.00 | microsomal CLint at 0.75 h, 0.2 µM (in vitro): 77.9 µL/min/mg

CCN1CCc2cc(-c3c(C)nc4c(OCc5ccccc5)cccn34)ccc2C1=O
pIC50 (Gamma-secretase): < 4.30

CCNC(=O)c1ccc(-c2c(C)nc3c(OCc4ccc(-n5cncn5)cc4)cccn23)cn1
microsomal CLint at 0.75 h, 0.2 µM (in vitro): 49.9 µL/min/mg

CCN1C(=O)c2ccc(-c3c(C)nc4c(OCc5ccccc5)cccn34)cc2C1(C)C
pIC50 (Gamma-secretase): < 5.70 | microsomal CLint at 0.75 h, 0.2 µM (in vitro): > 1000 µL/min/mg

CCNC(=O)c1ccc(-c2c(COC)nc3c(OCc4ccccc4)cccn23)cn1
pIC50 (Gamma-secretase): 5.21 | microsomal CLint at 0.75 h, 0.2 µM (in vitro): 350 µL/min/mg

CCNC(=O)c1ccc(-c2c(C)nc3c(OCc4c(C)cc(C)cc4C)cccn23)cn1
pIC50 (Gamma-secretase): 6.77 | microsomal CLint at 0.75 h, 0.2 µM (in vitro): > 1000 µL/min/mg

Source: ChEMBL document CHEMBL4609991, “Discovery of N-ethylpyridine-2-carboxamide derivatives as a novel scaffold for orally active γ-secretase modulators” (Bioorg Med Chem, 2020)
